Values after ≈ are worked out from the molar mass of the structure shown.
Tests used:
[1] = Volume of distribution in mouse; format: ADME, organism-based; details: in vivo
[2] = Metabolic stability in human liver microsomes assessed as intrinsic clearance at 0.5 uM measured upto 30 mins in presence of NADPH by UPLC-MS/MS analysis; format: ADME, Microsome; details: 0.5 h
[3] = Metabolic stability in mouse hepatocytes assessed as intrinsic clearance at 0.5 uM measured upto 120 mins in presence of NADPH by UPLC-MS/MS analysis; format: ADME, cell-based, Hepatocyte; details: 2 h
[4] = Apparent permeability in MDCK-II cells incubated for 1 hr by LC-MS/MS method; format: ADME, cell-based, Canis lupus familiaris; details: dog
[5] = Clearance in mouse; format: ADME, organism-based; details: in vivo
[6] = test system: Mycobacteroides abscessus; experiment: Antibacterial activity against Mycobacterium abscessus ATCC 19977 incubated for 2 days by resazurin microtiter assay; format: functional; details: ATCC 19977, 48 h, time 2 day
[7] = Metabolic stability in human hepatocytes assessed as intrinsic clearance at 0.5 uM measured upto 120 mins in presence of NADPH by UPLC-MS/MS analysis; format: ADME, cell-based, Hepatocyte; details: 2 h
[8] = Half-life in mouse; format: ADME, organism-based; details: in vivo
Dihydrofolate reductase = target: T1, Dihydrofolate reductase (Homo sapiens, UniProt P00374); experiment: Inhibition of human DHFR using 7, 8 dihydrofolate as substrate incubated for 1 hr by plate reader assay; format: toxicity
T1 sequence (P00374 whole entry): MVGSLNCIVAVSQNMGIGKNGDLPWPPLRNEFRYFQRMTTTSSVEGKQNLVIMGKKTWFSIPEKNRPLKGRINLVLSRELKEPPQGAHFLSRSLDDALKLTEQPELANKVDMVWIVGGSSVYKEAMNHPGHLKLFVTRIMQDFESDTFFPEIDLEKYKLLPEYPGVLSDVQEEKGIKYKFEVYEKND

[9] = Inhibition of Mycobacterium abscessus DHFR using 7, 8 dihydrofolate as substrate incubated for 1 hr by plate reader assay; set-up: species or system Mycobacteroides abscessus
[10] = Inhibition of Mycobacterium avium DHFR using 7, 8 dihydrofolate as substrate incubated for 1 hr by plate reader assay
[11] = Solubility of compound in PBS at pH 7.4 incubated for 24 hrs by UPLC analysis; format: physicochemical; details: for solubility: buffer, pH 7.4, 24 h
[12] = Unbound fraction in mouse plasma; format: ADME, cell-free
[13] = AUCinfinity in BALB/c mouse at 1 mg/kg, iv measured upto 24 hrs by UPLC/MS-MS analysis; format: ADME, organism-based; details: in vivo
[14] = Observed clearance in BALB/c mouse at 1 mg/kg, iv measured upto 24 hrs by UPLC/MS-MS analysis; format: ADME, organism-based; details: in vivo
[15] = AUClast in BALB/c mouse at 1 mg/kg, iv measured upto 24 hrs by UPLC/MS-MS analysis; format: ADME, organism-based; details: in vivo
[16] = Lipophilicity, logP of compound; format: physicochemical; details: octanol/water
[17] = Extrapolated AUC in BALB/c mouse at 1 mg/kg, iv measured upto 24 hrs by UPLC/MS-MS analysis; format: ADME, organism-based; details: in vivo
[18] = Observed volume of distribution at steady state in BALB/c mouse at 1 mg/kg, iv measured upto 24 hrs by UPLC/MS-MS analysis; format: ADME, organism-based; details: in vivo
[19] = AUClast in BALB/c mouse at 3 mg/kg, po measured upto 24 hrs by UPLC/MS-MS analysis; format: ADME, organism-based; details: in vivo
[20] = Oral bioavailability in BALB/c mouse at 3 mg/kg measured upto 24 hrs by UPLC/MS-MS analysis; format: ADME, organism-based; details: in vivo
[21] = Tmax in BALB/c mouse at 3 mg/kg, po measured upto 24 hrs by UPLC/MS-MS analysis; format: ADME, organism-based; details: in vivo
[22] = Cmax in BALB/c mouse at 3 mg/kg, po measured upto 24 hrs by UPLC/MS-MS analysis; format: ADME, organism-based; details: in vivo
HepG2 = experiment: Cytotoxicity against human HepG2 cells assessed as viable cells at 100 uM incubated for 72 hrs by resazurin dye based plate reader assay; format: toxicity, cell-based; details: hepg2, 72 h
[23] = Half-life in BALB/c mouse at 1 mg/kg, iv measured upto 24 hrs by UPLC/MS-MS analysis; format: ADME, organism-based; details: in vivo

Row | SMILES | MIC [6] [µg/mL] | IC50 [9] [nM] | IC50 [10] [nM] | IC50 (Dihydrofolate reductase) [nM] | other results
1 | CCc1nc(N)nc(N)c1OCCCOc1ccccc1CCC(=O)O | 10.1 (≈ 28 µM) | 0.8 | 4.3 | 120 | Vd [1]: 2.5 L/kg; intrinsic clearance [2]: < 0.4 mL/min/g; CLH [3]: < 0.76 mL/min/g; Papp [4]: 3 ×10⁻⁶ cm/s; clearance [5]: 43.6 mL/min/kg; intrinsic clearance [7]: < 0.66 mL/min/g; half-life [8]: 39 min; solubility [11]: 233 µM (≈ 84 µg/mL)
2 | CCCOc1nc(N)nc(N)c1OCCCOc1ccccc1CCC(=O)O |  | > 5000 | > 5000 | > 5000 | 
3 | CCCCCc1nc(N)nc(N)c1OCCCOc1ccccc1CCC(=O)O | 0.6 (≈ 1.49 µM) | 8.3 | 4.5 | 430 | 
4 | NCCCc1nc(N)nc(N)c1OCCCOc1ccccc1CCC(=O)O | 12.9 (≈ 33.1 µM) | 45 | 240 | > 5000 | 
5 | Nc1ncc(OCCCOc2ccccc2CCC(=O)O)c(N)n1 |  | 990 | 220 | 9700 | 
6 | Nc1nc(N)c(OCCCOc2ccccc2CCC(=O)O)c(CCCCO)n1 | 0.1 (≈ 0.247 µM) | 4.9 | 5 | 460 | intrinsic clearance [2]: < 0.4 mL/min/g; CLH [3]: < 0.76 mL/min/g; Papp [4]: 0.8 ×10⁻⁶ cm/s; intrinsic clearance [7]: < 0.66 mL/min/g; solubility [11]: 227 µM (≈ 91.8 µg/mL)
7 | Nc1nc(N)c(OCCCOc2ccccc2CCC(=O)O)c(C2CCNCC2)n1 | 6.2 (≈ 14.9 µM) | 30 | 63 | > 5000 | 
8 | Nc1nc(N)c(OCCCOc2ccccc2CCC(=O)O)c(-c2ccccc2)n1 | 0.3 (≈ 0.734 µM) | 17 | 7 | > 5000 | intrinsic clearance [2]: 0.43 mL/min/g; CLH [3]: 2.2 mL/min/g; Papp [4]: 5.4 ×10⁻⁶ cm/s; intrinsic clearance [7]: < 0.66 mL/min/g; solubility at 24 h ([11]; PBS, pH 7.4): 52 µM (≈ 21.2 µg/mL)
9 | Nc1nc(N)c(OCCCOc2ccccc2CCC(=O)O)c(C2CCCCC2)n1 | 0.1 (≈ 0.241 µM) | 1.1 | 6.3 | 2100 | intrinsic clearance [2]: 0.54 mL/min/g; Fu [12]: ~ 0.02; CLH [3]: 2.2 mL/min/g; Papp [4]: 3.2 ×10⁻⁶ cm/s; intrinsic clearance [7]: < 0.66 mL/min/g; AUC [13]: 42750 ng·min/mL; clearance [14]: 23 mL/min/kg; AUClast [15]: 40507 ng·min/mL; logP [16]: 3.6; %AUCextra [17]: 5%; Vdss [18]: 0.9 L/kg; AUClast [19]: 49232 ng·min/mL; F [20]: 41%; Tmax [21]: 30 min; Cmax [22]: 279 ng/mL; Activity (HepG2): > 60%; t1/2 [23]: 30 min; solubility [11]: 43 µM (≈ 17.8 µg/mL)
10 | COc1ccc(-c2nc(N)nc(N)c2OCCCOc2ccccc2CCC(=O)O)cc1 | 0.2 (≈ 0.456 µM) | 17 | 5.2 | 700 | intrinsic clearance [2]: < 0.4 mL/min/g; CLH [3]: 0.59 mL/min/g; Papp [4]: 4.1 ×10⁻⁶ cm/s; intrinsic clearance [7]: < 0.66 mL/min/g; solubility [11]: 67 µM (≈ 29.4 µg/mL)
11 | NCC[C@H](O)C(=O)N[C@@H]1C[C@H](N)[C@@H](O[C@H]2O[C@H](CN)[C@@H](O)[C@H](O)[C@H]2O)[C@H](O)[C@H]1O[C@H]1O[C@H](CO)[C@@H](O)[C@H](N)[C@H]1O [AMIKACIN] | 1.7 (≈ 2.9 µM) |  |  |  | 

Second part, led by results:

Row | MIC [6] [µg/mL] | IC50 [9] [nM] | IC50 [10] [nM] | SMILES | IC50 (Dihydrofolate reductase) [nM] | other results
12 |  | > 5000 | > 5000 | COc1nc(N)nc(N)c1OCCCOc1ccccc1CCC(=O)O | > 5000 | 
13 | 0.6 (≈ 1.47 µM) | 77 | 17 | Nc1nc(N)c(OCCCOc2ccccc2CCC(=O)O)c(-c2ccncc2)n1 | > 5000 | 
14 |  | > 5000 | > 5000 | CCCCOc1nc(N)nc(N)c1OCCCOc1ccccc1CCC(=O)O | > 5000 | 
15 |  | 210 | 210 | COc1ccccc1-c1nc(N)nc(N)c1OCCCOc1ccccc1CCC(=O)O | > 5000 | 
16 | 5.6 (≈ 12.8 µM) | 13 | 60 | COc1cccc(-c2nc(N)nc(N)c2OCCCOc2ccccc2CCC(=O)O)c1 | > 5000 | 
17 |  | 0.86 | 3.8 | CCCc1nc(N)nc(N)c1OCCCOc1ccccc1CCC(=O)O | 7.2 | 
18 | 3.6 (≈ 7.56 µM) | 42 | 28 | Nc1nc(N)c(OCCCOc2ccccc2CCC(=O)O)c(-c2ccccc2C(F)(F)F)n1 | > 5000 | 
19 |  | 320 | 1900 | Nc1nc(N)c(OCCCOc2ccccc2CCC(=O)O)c(-c2cccc(C(F)(F)F)c2)n1 | > 5000 | 

Source: ChEMBL document CHEMBL6092213, “Rational Exploration of 2,4-Diaminopyrimidines as DHFR Inhibitors Active against Mycobacterium abscessus and Mycobacterium avium, Two Emerging Human Pathogens” (J Med Chem, 2024)
